Results published in patent US8541373B2, “BChE albumin fusions for the treatment of cocaine abuse” (priority 2009, dated 2013).

How the values were obtained:
cocaine = test: Effect of AlbuBChE pretreatment on cocaine-induced cardiovascular and body temperature changes; type: in vivo, cynomolgus monkeys
Description: The effect of pretreatment with AlbuBChE prior to cocaine dose on CV parameters was tested on the second group (Group 2) of animals (3 males and 3 females). First baseline CV parameters were recorded on SD 15 after an IM administration of AlbuBChE formulation buffer followed by a single IV administration of saline (cocaine vehicle), 3 hours later. The effect of cocaine on CV parameters was measured on SD 18, on which the animals received a single IM injection of AlbuBChE formulation buffer followed by a single IV dose of cocaine (1 mg/kg, IV), 3 hours later.
The effect of pretreatment with AlbuBChE on cocaine-induced changes in CV parameters was monitored on SD 22. CV parameters were recorded subsequent to a single IM dose of AlbuBChE (15 mg/kg) followed by a single IV dose of cocaine (1 mg/kg), 3 hours later (see Table 21).

[1] = Previous pharmacokinetic study, SC, IM and IV administration (bioavailability); details: previous study in cynomolgus monkeys
Description: AlbuBChE absolute bioavailability for IM and Sc routes of administration was calculated relative to IV at the […] dose level.
In a previous study, AlbuBChE pharmacokinetic profile was evaluated in cynomolgus monkeys. In that study, the test article was administered SC (7.8, 2.4 and 0.78 mg/kg), IM (2.4 mg/kg) and IV (2.4 mg/kg). […] In addition, AlbuBChE IM dose levels of 0.2, 1 and 5 mg/kg were selected to define AlbuBChE pharmacodynamic range in cynomolgus monkeys.

[2] = 15 mg/kg IM 3 hours before cocaine 1 mg/kg IV

AlbuBChE
Maximum blood pressure after cocaine (cocaine; [2]): decreased | Truncation of time to reversal of blood pressure effect (cocaine; [2]): 4.5 fold | Time to reversal of cocaine-induced increase in mean arterial blood pressure (cocaine; 15 mg/kg IM 3 hours before cocaine 1 mg/kg IV (77 minutes with cocaine alone)): 17 min | Body temperature after cocaine (cocaine; 15 mg/kg IM pre-treatment, cocaine 1 mg/kg IV, base line 38° C. (38.7° C. with cocaine alone)): 38.3 °C | Cocaine-induced increase in heart rate (cocaine; 15 mg/kg pre-treatment, cocaine 1 mg/kg IV (70% with cocaine alone)): 30% | Time for heart rate to return to baseline after cocaine dose (cocaine; 15 mg/kg pre-treatment, cocaine 1 mg/kg IV (2 hours with cocaine alone)): 30 min | Peak heart rate after cocaine (cocaine; 15 mg/kg pre-treatment, cocaine 1 mg/kg IV, baseline 140 (240 with cocaine alone)): 182 beats/min | Bioavailability ([1]; IM): 79% | Bioavailability ([1]; SC): 35-39%
